Experimental data taken from paper PMC9697198, “Carbonic Anhydrase Inhibition Activities of Schiff’s Bases Based on Quinazoline-Linked Benzenesulfonamide” (Molecules, 2022).
Where “and” joins values, the source holds several entries; their conditions need not be identical. Identical values can stand only once.

What was measured:
hCA XII = hCA XII (Homo sapiens, UniProt O43570); test: hCA XII inhibition, stopped-flow assay; type: biochemical; settings: for Selectivity Analysis hCA I/XII / Selectivity Analysis hCA II/XII: selectivity index (SI); for Selectivity Analysis hCA I/XII: ratio of Ki hCA I to Ki hCA XII; for Selectivity Analysis hCA II/XII: ratio of Ki hCA II to Ki hCA XII; for Ki: stopped-flow technique, mean from three different assays, errors ±5–10%
Chain of hCA XII (O43570 25-354): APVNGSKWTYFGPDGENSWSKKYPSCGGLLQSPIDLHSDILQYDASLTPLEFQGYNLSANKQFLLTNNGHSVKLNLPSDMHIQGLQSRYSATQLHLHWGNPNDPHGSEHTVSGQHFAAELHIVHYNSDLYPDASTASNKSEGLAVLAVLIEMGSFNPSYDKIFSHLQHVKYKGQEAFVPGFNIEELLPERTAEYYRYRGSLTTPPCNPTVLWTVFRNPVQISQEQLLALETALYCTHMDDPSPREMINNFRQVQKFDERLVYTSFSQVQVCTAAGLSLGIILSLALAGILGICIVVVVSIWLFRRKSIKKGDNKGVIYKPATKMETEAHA

hCA IX = hCA IX (Homo sapiens, UniProt Q16790); test: hCA IX inhibition, stopped-flow assay; type: biochemical; settings: for Selectivity Analysis hCA I/IX / Selectivity Analysis hCA II/IX: selectivity index (SI); for Selectivity Analysis hCA I/IX: ratio of Ki hCA I to Ki hCA IX; for Selectivity Analysis hCA II/IX: ratio of Ki hCA II to Ki hCA IX; for Ki: stopped-flow technique, mean from three different assays, errors ±5–10%
hCA II = hCA II (Homo sapiens, UniProt P00918); test: hCA II inhibition, stopped-flow assay; type: biochemical; settings: stopped-flow technique; mean from three different assays, errors ±5–10%
hCA I = hCA I (Homo sapiens, UniProt P00915); test: hCA I inhibition, stopped-flow assay; type: biochemical; settings: stopped-flow technique; mean from three different assays, errors ±5–10%
Chain of hCA I (P00915 whole entry): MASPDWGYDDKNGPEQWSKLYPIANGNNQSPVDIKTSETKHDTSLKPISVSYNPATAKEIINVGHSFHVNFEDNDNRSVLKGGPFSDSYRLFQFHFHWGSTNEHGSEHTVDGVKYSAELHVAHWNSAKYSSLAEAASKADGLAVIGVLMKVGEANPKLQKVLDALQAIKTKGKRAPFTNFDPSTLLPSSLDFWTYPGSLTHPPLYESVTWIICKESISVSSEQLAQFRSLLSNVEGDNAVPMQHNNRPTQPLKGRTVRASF

Row | SMILES | Selectivity Analysis hCA I/XII (hCA XII) | Selectivity Analysis hCA II/XII (hCA XII) | Ki (hCA XII) | melting point | Selectivity Analysis hCA I/IX (hCA IX) | Selectivity Analysis hCA II/IX (hCA IX) | Ki (hCA IX) | Ki (hCA II) | Ki (hCA I)
1 | Cc1ccccc1C=NNC(=O)CSc1nc2ccccc2c(=O)n1CCc1ccc(S(N)(=O)=O)cc1 [Compound 12, 4-(2-(2-((2-(2-(2-Methylbenzylidene)hydrazineyl)-2-oxoethyl)thio)-4-oxoquinazolin-3(4H)-yl)ethyl)benzenesulfonamide] | 5.31 | 1.09 | 63.5 nM | 239 to 240 °C | 11.41 | 2.34 | 29.6 nM | 69.4 nM | 338 nM
2 | CC(=NNC(=O)CSc1nc2ccccc2c(=O)n1CCc1ccc(S(N)(=O)=O)cc1)c1ccccc1Cl [Compound 21, 4-(2-(2-((2-(2-(1-(2-Chlorophenyl)ethylidene)hydrazineyl)-2-oxoethyl)thio)-4-oxoquinazolin-3(4H)-yl)ethyl)benzenesulfonamide] | 19.74 | 5.59 | 58 nM | 273 to 275 °C | 25.27 | 7.15 | 45.3 nM | 324 nM | 1140 nM
3 | NS(=O)(=O)c1ccc(CCn2c(SCC(=O)NN=Cc3c(Cl)cccc3Cl)nc3ccccc3c2=O)cc1 [Compound 9, 4-(2-(2-((2-(2-(2,6-Dichlorobenzylidene)hydrazineyl)-2-oxoethyl)thio)-4-oxoquinazolin-3(4H)-yl)ethyl)benzenesulfonamide] | 40.35 | 2.95 | 55.9 nM | 296 to 297 °C | 45.85 | 3.35 | 49.2 nM | 165 nM | 2260 nM
4 | CC(=NNC(=O)CSc1nc2ccccc2c(=O)n1CCc1ccc(S(N)(=O)=O)cc1)c1cccc(Cl)c1 [Compound 22, 4-(2-(2-((2-(2-(1-(3-Chlorophenyl)ethylidene)hydrazineyl)-2-oxoethyl)thio)-4-oxoquinazolin-3(4H)-yl)ethyl)benzenesulfonamide] | 18.49 | 7.23 | 46.9 nM | 297 to 298 °C | 11.51 | 4.50 | 75.3 nM | 339 nM | 867 nM
5 | NS(=O)(=O)c1ccc(CCn2c(SCC(=O)NN=Cc3ccc(Cl)cc3)nc3ccccc3c2=O)cc1 [Compound 6, 4-(2-(2-((2-(2-(4-Chlorobenzylidene)hydrazineyl)-2-oxoethyl)thio)-4-oxoquinazolin-3(4H)-yl)ethyl)benzenesulfonamide] | 8.37 | 1.87 | 67.8 nM | 288 to 289 °C | 6.37 | 1.42 | 88.6 nM and 89.1 nM | 127 nM | 568 nM

The next compounds have a lower Ki (hCA XII) than those just listed; values first:

Row | Selectivity Analysis hCA I/XII (hCA XII) | Selectivity Analysis hCA II/XII (hCA XII) | Ki (hCA XII) | melting point | Selectivity Analysis hCA I/IX (hCA IX) | Selectivity Analysis hCA II/IX (hCA IX) | Ki (hCA IX) | Ki (hCA II) | Ki (hCA I) | SMILES
6 | 8.35 | 3.13 | 15.8 nM | 292 to 293 °C | 8.57 | 3.21 | 15.4 nM | 49.5 nM | 132 nM | NS(=O)(=O)c1ccc(CCn2c(SCC(=O)NN=Cc3ccc(F)cc3)nc3ccccc3c2=O)cc1 [Compound 11, 4-(2-(2-((2-(2-(4-Fluorobenzylidene)hydrazineyl)-2-oxoethyl)thio)-4-oxoquinazolin-3(4H)-yl)ethyl)benzenesulfonamide]
7 | 11.96 | 1.56 | 22.9 nM | 276 to 277 °C | 13.91 | 1.81 | 19.7 nM | 35.8 nM | 274 nM | NS(=O)(=O)c1ccc(CCn2c(SCC(=O)NN=Cc3ccccc3F)nc3ccccc3c2=O)cc1 [Compound 10, 4-(2-(2-((2-(2-(2-Fluorobenzylidene)hydrazineyl)-2-oxoethyl)thio)-4-oxoquinazolin-3(4H)-yl)ethyl)benzenesulfonamide]
8 | 45.04 | 1.92 | 18.3 nM | 264 to 265 °C | 22.46 | 0.96 | 36.7 nM | 35.2 nM | 824 nM | CC(=NNC(=O)CSc1nc2ccccc2c(=O)n1CCc1ccc(S(N)(=O)=O)cc1)c1ccccc1N [Compound 18, 4-(2-(2-((2-(2-(1-(2-Aminophenyl)ethylidene)hydrazineyl)-2-oxoethyl)thio)-4-oxoquinazolin-3(4H)-yl)ethyl)benzenesulfonamide]
9 | 16.22 | 3.12 | 5.4 nM | 253 to 254 °C | 1.68 | 0.32 | 52.1 nM | 16.9 nM | 87.6 nM | NNC(=O)CSc1nc2ccccc2c(=O)n1CCc1ccc(S(N)(=O)=O)cc1 [Compound 3, 4-(2-(2-((2-Hydrazineyl-2-oxoethyl)thio)-4-oxoquinazolin-3(4H)-yl)ethyl)benzenesulfonamide]
